Source: US12398154B2, “Azaquinazoline pan-KRas inhibitors” (Mirati Therapeutics, Inc., priority 2020, dated 2025)

How the values were obtained:
KRas G12D = KRas G12D (Homo sapiens, UniProt P01116, G12D); assay: biochemical;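 also: TR-FRET displacement binding assay on KRas, read after a one-hour incubation at room temperature, IC50 fitted from percent-of-control values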
Protocol: (§1) The ability of a compound to bind to KRas was measured using a TR-FRET displacement assay. […] After a 60-minute incubation at room temperature, the reaction was measured using a BMG LABTECH CLARIO star Plus via TR-FRET. […] The POC values were fit to a 4-parameter IC50 equation and the IC50 value reported.

KRas G12C = KRas G12C (Homo sapiens, UniProt P01116, G12C); assay: biochemical;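 also: binding to KRas assessed by TR-FRET displacement after one hour incubation at room temperature, potency fitted from percent-of-control values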
Protocol: as §1

KRas G12A = KRas G12A (Homo sapiens, UniProt P01116, G12A); assay: biochemical;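 also: binding to KRas measured by TR-FRET displacement after one hour at room temperature, IC50 from a four-parameter fit of percent-of-control values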
Protocol: as §1

KRas Q61H = target: T1, KRas Q61H (Homo sapiens, UniProt P01116, Q61H); assay: KRas binding assay (TR-FRET displacement);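 also: TR-FRET signal read after one hour at room temperature, IC50 derived by four-parameter fitting of percent-of-control values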
T1 construct: Biotinylated KRas (corresponding to amino acids 1-169, produced at Accelegan Inc.); biotin (biotinylated); purchased Accelegan Inc
Protocol: as §1

KRas G13D = target: T2, KRas G13D (Homo sapiens, UniProt P01116, G13D); assay: KRas binding assay (TR-FRET displacement);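 also: One-hour room temperature incubation before TR-FRET reading, IC50 from a four-parameter curve fit to percent-of-control data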
T2 construct: Biotinylated KRas (corresponding to amino acids 1-169, produced at Accelegan Inc.); biotin (biotinylated); purchased Accelegan Inc
Protocol: as §1

KRas G12R = KRas G12R (Homo sapiens, UniProt P01116, G12R); assay: biochemical;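 also: TR-FRET displacement assay of compound binding to KRas, read after one hour at room temperature, potency from a four-parameter fit of percent-of-control values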
Protocol: as §1

KRas WT = KRas WT (Homo sapiens, UniProt P01116); assay: biochemical;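 also: binding to KRas read as TR-FRET displacement after a one-hour room-temperature incubation, IC50 derived from percent-of-control values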
Protocol: as §1

KRas G12S = KRas G12S (Homo sapiens, UniProt P01116, G12S); assay: biochemical;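 also: TR-FRET displacement binding to KRas, read after one hour incubation at room temperature, IC50 from four-parameter fit of percent of control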
Protocol: as §1

KRas G12V = KRas G12V (Homo sapiens, UniProt P01116, G12V); assay: biochemical;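 also: KRas binding measured by TR-FRET displacement at room temperature, IC50 fitted from percent of control values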
KRas G12V, sequence (P01116 1-169 isoform P01116-2 G12V): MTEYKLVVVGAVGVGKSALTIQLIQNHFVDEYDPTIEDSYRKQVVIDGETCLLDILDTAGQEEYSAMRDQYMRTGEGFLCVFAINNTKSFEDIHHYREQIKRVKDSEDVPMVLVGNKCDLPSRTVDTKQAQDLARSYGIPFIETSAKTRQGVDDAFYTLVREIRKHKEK
Protocol: as §1

KRas G12S, sequence (P01116 1-169 isoform P01116-2 G12S): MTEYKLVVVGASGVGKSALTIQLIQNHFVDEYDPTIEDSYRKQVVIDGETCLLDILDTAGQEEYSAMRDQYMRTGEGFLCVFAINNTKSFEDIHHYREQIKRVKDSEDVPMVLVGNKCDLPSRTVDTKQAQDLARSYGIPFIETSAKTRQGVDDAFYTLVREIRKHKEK
T1 sequence (P01116 1-169 isoform P01116-2 Q61H): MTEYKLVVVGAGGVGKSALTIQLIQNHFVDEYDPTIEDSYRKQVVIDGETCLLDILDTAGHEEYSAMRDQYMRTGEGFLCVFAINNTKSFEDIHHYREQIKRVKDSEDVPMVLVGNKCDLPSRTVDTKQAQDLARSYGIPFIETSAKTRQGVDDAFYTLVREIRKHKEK
T2 sequence (P01116 1-169 isoform P01116-2 G13D): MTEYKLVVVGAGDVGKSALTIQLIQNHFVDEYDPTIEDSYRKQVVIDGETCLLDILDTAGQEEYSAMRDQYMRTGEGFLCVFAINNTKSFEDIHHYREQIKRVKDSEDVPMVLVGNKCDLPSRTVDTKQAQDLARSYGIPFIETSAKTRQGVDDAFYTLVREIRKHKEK
KRas G12R, sequence (P01116 1-169 isoform P01116-2 G12R): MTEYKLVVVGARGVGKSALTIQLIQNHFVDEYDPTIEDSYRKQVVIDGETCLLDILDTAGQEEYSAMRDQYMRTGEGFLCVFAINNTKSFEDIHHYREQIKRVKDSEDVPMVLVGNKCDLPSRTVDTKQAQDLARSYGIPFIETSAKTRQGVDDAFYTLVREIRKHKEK
KRas G12C, sequence (P01116 1-169 isoform P01116-2 G12C): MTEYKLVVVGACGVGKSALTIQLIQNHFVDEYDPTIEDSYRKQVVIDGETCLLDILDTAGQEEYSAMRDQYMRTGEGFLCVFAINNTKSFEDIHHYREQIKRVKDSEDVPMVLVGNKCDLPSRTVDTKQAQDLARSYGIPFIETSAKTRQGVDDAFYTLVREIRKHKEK
KRas WT, sequence (P01116 1-169 isoform P01116-2): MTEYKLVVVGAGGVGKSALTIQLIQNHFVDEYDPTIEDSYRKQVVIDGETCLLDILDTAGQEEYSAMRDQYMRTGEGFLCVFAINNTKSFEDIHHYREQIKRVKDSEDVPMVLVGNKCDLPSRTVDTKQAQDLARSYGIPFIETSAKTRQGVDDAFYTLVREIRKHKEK
KRas G12D, sequence (P01116 1-169 isoform P01116-2 G12D): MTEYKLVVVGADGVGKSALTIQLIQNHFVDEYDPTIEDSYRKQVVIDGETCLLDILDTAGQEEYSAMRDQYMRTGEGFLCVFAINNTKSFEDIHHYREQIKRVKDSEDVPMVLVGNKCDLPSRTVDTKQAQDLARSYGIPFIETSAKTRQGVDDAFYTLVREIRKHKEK
KRas G12A, sequence (P01116 1-169 isoform P01116-2 G12A): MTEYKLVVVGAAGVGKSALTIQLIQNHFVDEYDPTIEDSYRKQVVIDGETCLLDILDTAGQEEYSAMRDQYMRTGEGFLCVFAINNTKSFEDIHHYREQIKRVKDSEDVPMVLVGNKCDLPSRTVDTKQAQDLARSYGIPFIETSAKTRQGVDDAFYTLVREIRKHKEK

Structure (SMILES): Cn1ncc2ccc(Nc3nc(OCC45CCCN4CCC5)nc4c(F)c(-c5cccc6cccc(F)c56)ncc34)cc21 [Example 99, 8-fluoro-7-(8-fluoronaphthalen-1-yl)-2-((hexahydro-1H-pyrrolizin-7a-yl)methoxy)-N-(1-methyl-1H-indazol-6-yl)pyrido[4,3-d]pyrimidin-4-amine]
- IC50 (KRas G12D): ≥ 100 µM
- IC50 (KRas G12C): 8.33 µM
- IC50 (KRas G12A): 13.6 µM
- IC50 (KRas Q61H): 98500 nM
- IC50 (KRas G13D): 59800 nM
- IC50 (KRas G12R): 16.7 µM
- IC50 (KRas WT): 32.4 µM
- IC50 (KRas G12S): 21.7 µM
- IC50 (KRas G12V): 3.97 µM

Structure (SMILES): OCc1n[nH]c(CNc2nc(OCC34CCCN3CCC4)nc3c(F)c(-c4cccc5cccc(Cl)c45)ncc23)n1 [Example 105, (5-(((7-(8-chloronaphthalen-1-yl)-8-fluoro-2-((tetrahydro-1H-pyrrolizin-7a(5H)-yl)methoxy)pyrido[4,3-d]pyrimidin-4-yl)amino)methyl)-1H-1,2,4-triazol-3-yl)methanol]
- IC50 (KRas G12D): 9.05 µM
- IC50 (KRas G12C): 3.51 µM
- IC50 (KRas G12A): 6.7 µM
- IC50 (KRas Q61H): 13800 nM
- IC50 (KRas G13D): 13800 nM
- IC50 (KRas G12R): 5.92 µM
- IC50 (KRas WT): 8.01 µM
- IC50 (KRas G12S): 5.75 µM
- IC50 (KRas G12V): 2.81 µM

Structure (SMILES): CS(=O)(=O)C1CCCCN(c2nc(OCC34CCCN3CCC4)nc3c(F)c(-c4cccc5cccc(F)c45)ncc23)C1 (stereo not drawn) [Example 250, 8-fluoro-7-(8-fluoronaphthalen-1-yl)-2-((hexahydro-1H-pyrrolizin-7a-yl)methoxy)-4-(3-(methylsulfonyl)azepan-1-yl)pyrido[4,3-d]pyrimidine]
- IC50 (KRas G12D): 7.31 µM
- IC50 (KRas G12C): 6.84 µM
- IC50 (KRas G12A): 3.93 µM
- IC50 (KRas Q61H): 5310 nM
- IC50 (KRas G13D): 3510 nM
- IC50 (KRas G12R): 3.99 µM
- IC50 (KRas WT): 3.58 µM
- IC50 (KRas G12S): 3.8 µM
- IC50 (KRas G12V): 3.41 µM

Structure (SMILES): CCc1c(F)ccc2cc(O)cc(-c3ncc4c(N5CCCCC5)nc(OC[C@@H]5C[C@@H](O)CN5C)nc4c3F)c12 [Example 6]
- IC50 (KRas G12D): 0.029 µM
- IC50 (KRas G12C): 0.018 µM
- IC50 (KRas G12A): 0.016 µM
- IC50 (KRas Q61H): 23 nM
- IC50 (KRas G13D): 21 nM
- IC50 (KRas G12R): 0.014 µM
- IC50 (KRas WT): 0.022 µM
- IC50 (KRas G12S): 0.02 µM
- IC50 (KRas G12V): 0.019 µM

Structure (SMILES): O=c1cc(CNc2nc(OCC34CCCN3CCC4)nc3c(F)c(-c4cccc5cccc(F)c45)ncc23)[nH][nH]1 [Example 231, 5-(((8-fluoro-7-(8-fluoronaphthalen-1-yl)-2-((hexahydro-1H-pyrrolizin-7a-yl)methoxy)pyrido[4,3-d]pyrimidin-4-yl)amino)methyl)-1H-pyrazol-3(2H)-one]
- IC50 (KRas G12D): 97.9 µM
- IC50 (KRas G12C): 29.6 µM
- IC50 (KRas G12A): 52.1 µM
- IC50 (KRas Q61H): 62300 nM
- IC50 (KRas G13D): 61500 nM
- IC50 (KRas G12R): 8.68 µM
- IC50 (KRas WT): 49.4 µM
- IC50 (KRas G12S): 31.6 µM
- IC50 (KRas G12V): 24.6 µM

Structure (SMILES): OC1CCCN(c2nc(OCC34CCCN3CCC4)nc3c(F)c(-c4cccc5cccc(F)c45)ncc23)CC1 (stereo not drawn) [Example 129, 1-(8-fluoro-7-(8-fluoronaphthalen-1-yl)-2-((tetrahydro-1H-pyrrolizin-7a(5H)-yl)methoxy)pyrido[4,3-d]pyrimidin-4-yl)azepan-4-ol]
- IC50 (KRas G12D): 2.26 µM
- IC50 (KRas G12C): 2.53 µM
- IC50 (KRas G12A): 2.69 µM
- IC50 (KRas Q61H): 4360 nM
- IC50 (KRas G13D): 2500 nM
- IC50 (KRas G12R): 4.43 µM
- IC50 (KRas WT): 3.11 µM
- IC50 (KRas G12S): 2.79 µM
- IC50 (KRas G12V): 2.79 µM

Structure (SMILES): Fc1c(-c2cccc3cccc(F)c23)ncc2c(NCCc3c[nH]c4ncccc34)nc(OCC34CCCN3CCC4)nc12 [Example 212, N-(2-(1H-pyrrolo[2,3-b]pyridin-3-yl)ethyl)-8-fluoro-7-(8-fluoronaphthalen-1-yl)-2-((tetrahydro-1H-pyrrolizin-7a(5H)-yl)methoxy)pyrido[4,3-d]pyrimidin-4-amine]
- IC50 (KRas G12D): 15.6 µM
- IC50 (KRas G12C): 3.12 µM
- IC50 (KRas G12A): 2.83 µM
- IC50 (KRas Q61H): 17400 nM
- IC50 (KRas G13D): 10100 nM
- IC50 (KRas G12R): 0.88 µM
- IC50 (KRas WT): 8.36 µM
- IC50 (KRas G12S): 6.45 µM
- IC50 (KRas G12V): 1.35 µM

Structure (SMILES): Fc1c(-c2cccc3cccc(F)c23)ncc2c(N3CC=CCC3)nc(OCC34CCCN3CCC4)nc12 [Example 123, 4-(3,6-dihydropyridin-1 (2H)-yl)-8-fluoro-7-(8-fluoronaphthalen-1-yl)-2-((tetrahydro-1H-pyrrolizin-7a(5H)-yl)methoxy)pyrido[4,3-d]pyrimidine]
- IC50 (KRas G12D): 4.44 µM
- IC50 (KRas G12C): 2.34 µM
- IC50 (KRas G12A): 3.18 µM
- IC50 (KRas Q61H): 4980 nM
- IC50 (KRas G13D): 3480 nM
- IC50 (KRas G12R): 7.5 µM
- IC50 (KRas WT): 3.5 µM
- IC50 (KRas G12S): 2.76 µM
- IC50 (KRas G12V): 3.19 µM

Structure (SMILES): Cc1cc2[nH]ncc2c(-c2ncc3c(N4CCCC(C)(O)C4)nc(OCC45CCCN4CCC5)nc3c2F)c1C1CC1 (stereo not drawn) [Example 144, 1-(7-(5-cyclopropyl-6-methyl-1H-indazol-4-yl)-8-fluoro-2-((tetrahydro-1H-pyrrolizin-7a(5H)-yl)methoxy)pyrido[4,3-d]pyrimidin-4-yl)-3-methylpiperidin-3-ol]
- IC50 (KRas G12D): 0.043 µM
- IC50 (KRas G12C): 0.077 µM
- IC50 (KRas G12A): 0.071 µM
- IC50 (KRas Q61H): 82 nM
- IC50 (KRas G13D): 60 nM
- IC50 (KRas G12R): 0.096 µM
- IC50 (KRas WT): 0.074 µM
- IC50 (KRas G12S): 0.065 µM
- IC50 (KRas G12V): 0.048 µM

Structure (SMILES): OCc1cc2n(n1)CCCN(c1nc(OCC34CCCN3CCC4)nc3c(F)c(-c4cccc5cccc(F)c45)ncc13)C2 [Example 261, (5-(8-fluoro-7-(8-fluoronaphthalen-1-yl)-2-((hexahydro-1H-pyrrolizin-7a-yl)methoxy)pyrido[4,3-d]pyrimidin-4-yl)-5,6,7,8-tetrahydro-4H-pyrazolo[1,5-a][1,4]diazepin-2-yl)methanol]
- IC50 (KRas G12D): 1.61 µM
- IC50 (KRas G12C): 2.39 µM
- IC50 (KRas G12A): 5.74 µM
- IC50 (KRas Q61H): 10700 nM
- IC50 (KRas G13D): 9610 nM
- IC50 (KRas G12R): 2.61 µM
- IC50 (KRas WT): 7.1 µM
- IC50 (KRas G12S): 2.32 µM
- IC50 (KRas G12V): 3.98 µM

Structure (SMILES): O=C1CC(CNc2nc(OCC34CCCN3CCC4)nc3c(F)c(-c4cccc5cccc(F)c45)ncc23)C(=O)N1 (stereo not drawn) [Example 236, 3-(((8-fluoro-7-(8-fluoronaphthalen-1-yl)-2-((hexahydro-1H-pyrrolizin-7a-yl)methoxy)pyrido[4,3-d]pyrimidin-4-yl)amino)methyl)pyrrolidine-2,5-dione]
- IC50 (KRas G12D): 2.33 µM
- IC50 (KRas G12C): 2.04 µM
- IC50 (KRas G12A): 3.39 µM
- IC50 (KRas Q61H): 4440 nM
- IC50 (KRas G13D): 2460 nM
- IC50 (KRas G12R): 3.35 µM
- IC50 (KRas WT): 3.5 µM
- IC50 (KRas G12S): 0.897 µM
- IC50 (KRas G12V): 0.623 µM

Structure (SMILES): Fc1c(-c2cccc3cccc(F)c23)ncc2c(OCCCc3cccnc3)nc(OCC34CCCN3CCC4)nc12 [Example 207, 8-fluoro-7-(8-fluoronaphthalen-1-yl)-4-(3-(pyridin-3-yl)propoxy)-2-((tetrahydro-1H-pyrrolizin-7a(5H)-yl)methoxy)pyrido[4,3-d]pyrimidine]
- IC50 (KRas G12D): 17.3 µM
- IC50 (KRas G12C): 11.8 µM
- IC50 (KRas G12A): 18.1 µM
- IC50 (KRas Q61H): 46400 nM
- IC50 (KRas G13D): 30400 nM
- IC50 (KRas G12R): 13.1 µM
- IC50 (KRas WT): 26.7 µM
- IC50 (KRas G12S): 46.2 µM
- IC50 (KRas G12V): 6.17 µM

Structure (SMILES): Fc1c(-c2cccc3cccc(F)c23)ncc2c(N3CCCC(c4cc[nH]n4)C3)nc(OCC34CCCN3CCC4)nc12 (stereo not drawn) [Example 131, 4-(3-(1H-pyrazol-3-yl)piperidin-1-yl)-8-fluoro-7-(8-fluoronaphthalen-1-yl)-2-((tetrahydro-1H-pyrrolizin-7a(5H)-yl)methoxy)pyrido[4,3-d]pyrimidine]
- IC50 (KRas G12D): 14.6 µM
- IC50 (KRas G12C): 3.45 µM
- IC50 (KRas G12A): 4.46 µM
- IC50 (KRas Q61H): 7690 nM
- IC50 (KRas G13D): 6560 nM
- IC50 (KRas G12R): 2.79 µM
- IC50 (KRas WT): 8.21 µM
- IC50 (KRas G12S): 9.29 µM
- IC50 (KRas G12V): 8.3 µM
